Laboratory results reported in US20110306573A1, “NUCLEOSIDE DERIVATIVES AS INHIBITORS OF VIRAL POLYMERASES” (priority 2008, published 2011).

Biological target: T1, HCV NS5B polymerase (Hepatitis C virus genotype 1b, UniProt P26663)
T1 construct: RNA-dependent RNA polymerase (NS5B) of the hepatitis C virus (HCV)
Test: Assay for inhibition of HCV NS5B polymerase (RdRp, 3H-UTP incorporation on heteromeric RNA template)
Format: biochemical
Conditions: heterogeneous template dCoh, 2 nM DC55-lb.BK or 10 nM DC55-2b.2, NTPs 1 uM, room temperature 2 hours
Description: The effectiveness of the compounds of the present invention as inhibitors of HCV NS5B RNA-dependent RNA polymerase (RdRp) was measured in the following assay.
This assay was used to measure the ability of the nucleoside derivatives of the present invention to inhibit the enzymatic activity of the RNA-dependent RNA polymerase (NS5B) of the hepatitis C virus (HCV) on a heteromeric RNA template.
Assay Buffer Conditions: (52.5 μL-total/reaction)
20 nM heterogeneous template dCoh
2.5 μl/reaction inhibitor compound in H2O
The compounds were tested at various concentrations up to 100 μM final concentration. Nucleoside derivatives were pipetted into wells of a 96-well plate. The enzyme diluted in the reaction buffer was pipetted into the wells and incubated at room temperature for 10 minutes; then the template dCoh was added and incubated for 10 minutes at room temperature. The reaction was initiated by addition of a mixture of nucleotide triphosphates (NTP's), including the radiolabeled UTP, and allowed to proceed at room temperature for 2 hours. Blank samples were done omitting the dCoh template. The reaction was quenched by addition of 50 ul TCA 20% (trichloroacetic acid)/NaPPi 20 mM and the plates were put in ice for 5 minutes. Then, the mixtures were filtered onto Unifilter GF/B 96-well plates (PerkinElmer), washed with TCA 2.5%. 50 ul/well of scintillator solution (Microscint 20, PerkinElmer) were added and the plates were counted in a scintillator counter.
The percentage of inhibition was calculated according to the following equation:
% Inhibition=[1−(cpm in test reaction−cpm in blank)/(cpm in control reaction−cpm in blank)]×100.

T1 sequence (P26663 2420-2955): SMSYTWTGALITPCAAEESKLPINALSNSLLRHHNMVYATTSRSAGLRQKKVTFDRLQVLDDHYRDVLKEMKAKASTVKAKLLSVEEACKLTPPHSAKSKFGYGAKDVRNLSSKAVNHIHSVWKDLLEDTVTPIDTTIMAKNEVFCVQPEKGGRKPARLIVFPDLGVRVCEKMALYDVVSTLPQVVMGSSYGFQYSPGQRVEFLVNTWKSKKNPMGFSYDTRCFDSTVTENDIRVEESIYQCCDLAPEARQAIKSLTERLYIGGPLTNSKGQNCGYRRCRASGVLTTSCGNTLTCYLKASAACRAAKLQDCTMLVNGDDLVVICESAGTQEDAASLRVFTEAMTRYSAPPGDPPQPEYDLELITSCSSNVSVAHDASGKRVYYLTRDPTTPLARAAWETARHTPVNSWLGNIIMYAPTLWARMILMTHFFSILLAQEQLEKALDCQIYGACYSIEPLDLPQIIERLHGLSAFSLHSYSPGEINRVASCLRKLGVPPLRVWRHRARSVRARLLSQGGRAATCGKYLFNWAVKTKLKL

C[C@@]1(O)[C@H](O)[C@@H](COP(=O)(O)OP(=O)(O)OP(=O)(O)O)O[C@H]1n1cc(-c2ncon2)c2c(N)ncnc21 [Compound 16, 7-(2-C-methyl-5-triphospho-β-D-ribofuranosyl)-5-(1,2,4-oxadiazol-3-yl)-7H-pyrrolo[2,3-d]pyrimidin-4-amine]
IC50: < 1000 nM

Cn1cc(-c2cn([C@@H]3O[C@H](COP(=O)(O)OP(=O)(O)OP(=O)(O)O)[C@@H](O)[C@@]3(C)O)c3ncnc(N)c23)nn1 [Compound 17, 7-(2-C-methyl-5-triphospho-β-D-ribofuranosyl)-5-(1-methyl-1H-1,2,3-triazol-4-yl)-7H-pyrrolo[2,3-d]pyrimidin-4-amine]
IC50: < 50000 nM

C[C@@]1(F)[C@H](O)[C@@H](COP(=O)(O)OP(=O)(O)OP(=O)(O)O)O[C@H]1n1cc(-c2ncon2)c2c(N)ncnc21 [Compound 18, 7-(2-deoxy-2-fluoro-2-methyl-5-triphospho-β-D-ribofuranosyl)-5-(1,2,4-oxadiazol-3-yl)-7H-pyrrolo[2,3-d]pyrimidin-4-amine]
IC50: < 1000 nM

C[C@@]1(F)[C@H](O)[C@@H](COP(=O)(O)OP(=O)(O)OP(=O)(O)O)O[C@H]1n1cc(-c2ncco2)c2c(N)ncnc21 [Compound 19, 7-(2-deoxy-2-fluoro-2-methyl-5-triphospho-β-D-ribofuranosyl)-5-(1,3-oxazol-2-yl)-7H-pyrrolo[2,3-d]pyrimidin-4-amine]
IC50: < 1000 nM

C[C@@]1(F)[C@H](O)[C@@H](COP(=O)(O)OP(=O)(O)OP(=O)(O)O)O[C@H]1n1cc(-c2ccn[nH]2)c2c(N)ncnc21 [Compound 20, 7-(2-deoxy-2-fluoro-2-methyl-5-triphospho-β-D-ribofuranosyl)-5-(1H-pyrazol-5-yl)-7H-pyrrolo[2,3-d]pyrimidin-4-amine]
IC50: < 1000 nM

C[C@@]1(O)[C@H](O)[C@@H](COP(=O)(O)OP(=O)(O)OP(=O)(O)O)O[C@H]1n1nc(-c2cc[nH]n2)c2c(N)ncnc21 [Compound 26, 1-[5-O-(hydroxy{[hydroxy(phosphonooxy)phosphoryl]oxy}phosphoryl)-2-C-methyl-b-D-ribofuranosyl]-3-(1H-pyrazol-3-yl)-1H-pyrazolo[3,4-d]pyrimidin-4-amine]
IC50: < 50000 nM

C[C@@]1(O)[C@H](O)[C@@H](COP(=O)(O)OP(=O)(O)OP(=O)(O)O)O[C@H]1n1cc(-c2nnco2)c2c(N)ncnc21 [Compound 28, 7-(2-C-methyl-5-triphospho-β-D-ribofuranosyl)-5-(1,3,4-oxadiazol-2-yl)-7H-pyrrolo[2,3-d]pyrimidin-4-amine]
IC50: < 50000 nM
